Legend:
glucocorticoid receptor = target: T1, glucocorticoid receptor (Mus musculus, UniProt P06537); assay: competition for 3H-dexamethasone binding sites in LE II cytosol (glucocorticoid receptor affinity); conditions: Table 1; displacement of 25 nM 3H-DEX, LE II (mouse lung capillary endothelial) cytosol, 3 hours on ice; read-out: IC50 Binding LEII
T1 construct: endogenous in cells; host or cells: LE II (mouse lung capillary endothelial) cells, 100,000 x g cytosol
T1 sequence (P06537 1-792): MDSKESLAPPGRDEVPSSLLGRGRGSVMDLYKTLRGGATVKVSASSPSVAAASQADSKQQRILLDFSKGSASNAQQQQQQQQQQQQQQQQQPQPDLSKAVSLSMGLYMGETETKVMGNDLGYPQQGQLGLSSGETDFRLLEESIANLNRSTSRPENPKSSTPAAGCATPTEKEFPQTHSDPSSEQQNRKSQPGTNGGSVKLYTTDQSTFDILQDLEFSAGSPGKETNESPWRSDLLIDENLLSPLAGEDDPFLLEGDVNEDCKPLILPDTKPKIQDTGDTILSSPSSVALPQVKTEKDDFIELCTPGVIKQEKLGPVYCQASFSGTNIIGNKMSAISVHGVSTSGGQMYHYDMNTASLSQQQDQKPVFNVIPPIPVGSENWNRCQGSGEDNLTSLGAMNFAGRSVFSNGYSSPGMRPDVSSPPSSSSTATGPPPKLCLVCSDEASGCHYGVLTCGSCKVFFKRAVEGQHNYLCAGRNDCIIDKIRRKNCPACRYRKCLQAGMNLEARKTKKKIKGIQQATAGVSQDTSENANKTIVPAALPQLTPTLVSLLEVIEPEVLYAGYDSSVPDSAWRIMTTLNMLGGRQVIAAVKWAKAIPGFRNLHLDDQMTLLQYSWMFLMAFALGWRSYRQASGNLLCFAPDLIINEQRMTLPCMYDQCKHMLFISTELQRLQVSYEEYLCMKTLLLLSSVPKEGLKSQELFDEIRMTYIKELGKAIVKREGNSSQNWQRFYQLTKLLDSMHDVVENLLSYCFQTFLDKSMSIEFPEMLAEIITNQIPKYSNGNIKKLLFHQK
Method: LE II (mouse lung capillary endothelial) or HTC (rat hepatoma) cells were grown in Dulbecco's modified Eagle's (DMEM) medium plus 10% fetal calf serum (FCS), in 150 cm^2 T-flasks. Approximately 20 flasks of LE II cells or 10 flasks of HTC cells were needed for a 60-80 sample assay.
Cell monolayers were washed 3 times with Phosphate Buffered Saline (PBS) and harvested by scraping with a rubber policeman into an ice-cold sonication buffer of 0.25M sucrose; 10 mM Tris-HCl, pH 7.4; 5 mM ethylenediaminetetraacetic acid (EDTA); 5 mM dithiothereitol; and 10 mM sodium molybdate. All subsequent steps were performed at 4° C. The cells were pooled into a final volume of 8-12 mls, broken by sonication for 45 seconds with the microtip of a Branson sonifier at setting #3 and the residue was then centrifuged at 100,000 X g for 30 minutes with a Beckman L8-50, Ti50 rotor, at 40,000 rpm. […] Incubations were peformed in a final volume of 1 ml in 1.5 ml Eppendorf centrifuge tubes for 3 hours on ice.
Fine Sephadex G-50 gel was swollen and equilibrated against column buffer of 100 mM Tris-HCl, pH 7.8; and 3 mM CaCl2. Columns were poured to a final packed volume of 4.5 ml in 5 ml plastic disposable pipets.
The packed columns were then drained of buffer and the 1 ml incubated samples were applied to each. The samples were washed into the columns with 0.5 ml of column buffer, and the exclusion volumes containing the protein peaks were eluted with another 1 ml of column buffer and collected. Aliquots of 750 μl of Biorad protein reagent were diluted 1:5 in H2 O. OD630 nm reading were compared with those obtained for a bovine serum albumin standard curve.

[1] = system: alkaline phosphatase (APb); assay: alkaline phosphatase (APb) induction in LE II cells; type: cell-based, mouse; conditions: Mus musculus, Table 1, about 65 hours, relative to dexamethasone = 1, read-out: Efficacy (DEX = 1) Alk P
Method: This is another standard test for glucocorticoid activity.
LE II cells were grown in DMEM plus 10% FCS, at 37° C., in a 10% carbon dioxide atmosphere. Confluent monolayers of cells were trypsinized and seeded at a 1:15 dilution into 6-well Costar cluster dishes. […] In all experiments, DEX, at concentrations of 10^-9 to 10^-6 M, was added to some of the wells as a positive control.
Cell monolayers were washed with PBS and harvested by scraping with a rubber policeman into 400 μl of a buffer of 20 mM Tris-HCl at pH 7.4; 2 mM MgCl2; and 150 mM NaCl together with 1% Triton X-100. Samples were transferred into 1.5 ml Eppendorf centrifuge tubes and placed on ice. The tubes were first vortexed and then centrifuged in the Eppendorf minicentrifuge for 2 minutes. Duplicate 100 μl aliquots of supernatant were placed into 12×75 mm glass test tubes for determination of APb activity, while the rest was saved for protein determination. […] The tubes were incubated in a 37° C. water bath for between 20 to 50 minutes, depending on the activity of the samples. The APb reaction was terminated by the addition of 0.5 ml of […]. The tubes were mixed and 200 μl portions from each tube were transferred in triplicate to a 96 well microtiter plate. The OD410 nm of each well was then determined using a Dynatech plate reader.
[…] of the cell supernatant were transferred to 96 well microtiter plates for protein determination by a modification of the Lowry method. […] The plates were shaken for 1 hour and then the OD630 was determined using a Dynatech plate reader. The protein content for each sample was calculated by comparing the average OD630 reading with those obtained for a bovine serum albumin standard curve.
The alkaline phosphatase activity of in each sample was expressed as μmoles product formed per minute per mg protein in the Alk P column of Tables 1 and 2. Results are expressed as the induction ability of a compound as compared to dexamethasone.

Row | SMILES | IC50 (glucocorticoid receptor) | Emax [1]
1 | CCCC(=O)O[C@]1(C(=O)OC)[C@@H](C)C[C@H]2[C@@H]3CC(F)C4=CC(=O)C=C[C@]4(C)[C@@]3(F)[C@@H](O)C[C@@]21C (stereo partly drawn) [compound 4] | 0.25 nM | 170%
2 | CCC(=O)O[C@]1(C(=O)OC)[C@@H](C)C[C@H]2[C@@H]3CCC4=CC(=O)C=C[C@]4(C)[C@@]3(F)[C@@H](O)C[C@@]21C [compound 1] | 2 nM | 100%
3 | CCCC(=O)O[C@]1(C(=O)OC)[C@H](C)C[C@H]2[C@@H]3CC(F)C4=CC(=O)C=C[C@]4(C)[C@@]3(F)[C@@H](O)C[C@@]21C (stereo partly drawn) [compound 9] | 0.025 nM | 90%
4 | CCC(=O)O[C@]1(C(=O)OC)[C@H](C)C[C@H]2[C@@H]3CC(F)C4=CC(=O)C=C[C@]4(C)[C@@]3(F)[C@@H](O)C[C@@]21C (stereo partly drawn) [compound 7] | 0.25 nM | 110%
5 | CCC(=O)O[C@]1(C(=O)OC)[C@@H](C)C[C@H]2[C@@H]3CC(F)C4=C(F)C(=O)C=C[C@]4(C)[C@@]3(F)[C@@H](O)C[C@@]21C (stereo partly drawn) [compound 3] | 15 nM | 100%
6 | CCC(=O)O[C@]1(C(=O)OC)[C@H](C)C[C@H]2[C@@H]3CC(F)C4=C(F)C(=O)C=C[C@]4(C)[C@@]3(F)[C@@H](O)C[C@@]21C (stereo partly drawn) [compound 8] | 0.25 nM | 120%

From patent US4599331A, “Etianic acids as antiangiogenics” (Syntex (U.S.A.) Inc., priority 1984, dated 1986)
